# Test results reported in patent US6277847A, “Herbicidal isoindolinonyl-and 3,4-dihydroisoquinolonyl-substituted heterocycles” (FMC Corporation, priority 2000, dated 2001).
# What was measured:
# Assay type in all cases: in vivo
# [1] = tested on: common cocklebur (Xanthium strumarium L.); assay: pre-emergence herbicidal activity, cocklebur; details: 1 kg/Ha, about fourteen days, read-out: pre-emergence herbicidal activity (% control) XANPE
# Summary of the method: (§1)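 Seeds sown in soil flats and sprayed pre-emergence with a water/acetone solution of test compound at 1 kg/Ha; untreated controls kept alongside. Phytotoxicity scored after about fourteen days as percent control, 0 being no effect and 100 complete control.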
# [2] = tested on: common cocklebur (Xanthium strumarium L.); assay: post-emergence herbicidal activity, cocklebur; details: 1 Kg/Ha, about fourteen days, read-out: post-emergence herbicidal activity (% control) XANPE
# Summary of the method: (§2)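 Percent control (0–100) was rated about fourteen days after spraying of emerged, germinated plants in flats with compound dissolved in water/acetone at 1 Kg/Ha.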
# [3] = tested on: wheat (Triticum aestivum var. Lew); assay: post-emergence herbicidal activity, wheat; details: 1 Kg/Ha, about fourteen days, read-out: post-emergence herbicidal activity (% control) WHT
# Summary of the method: as §2
# [4] = tested on: field corn (Zea mays var. Pioneer 3732); assay: post-emergence herbicidal activity, corn; details: 1 Kg/Ha, about fourteen days, read-out: post-emergence herbicidal activity (% control) CRN
# Summary of the method: as §2
# [5] = tested on: field corn (Zea mays var. Pioneer 3732); assay: pre-emergence herbicidal activity, corn; details: 1 kg/Ha, about fourteen days, read-out: pre-emergence herbicidal activity (% control) CRN
# Summary of the method: as §1
# [6] = tested on: green foxtail (Setaria viridis); assay: pre-emergence herbicidal activity, green foxtail; details: 1 kg/Ha, about fourteen days, read-out: pre-emergence herbicidal activity (% control) SETVI
# Summary of the method: as §1
# [7] = tested on: blackgrass (Aloepecurus myosuroides); assay: post-emergence herbicidal activity, blackgrass; details: Alopecurus myosuroides, 1 Kg/Ha, about fourteen days, read-out: post-emergence herbicidal activity (% control) ALOMY
# Experimental: (§3) This example sets forth the methods of herbicidal testing conducted on the specific compounds set forth below. Specifically, the compounds referenced below were tested for pre- and post-emergence herbicidal activity using a variety of crops and weeds. The test plants include, but are not limited to, soybean (Glycine max -- var. Winchester), field corn (Zea mays var. Pioneer 3732), wheat (Triticum aestivum var. Lew), morningglory (Ipomea lacunosa or Ipomea hederacea), velvetleaf (Abutilon theophrasti), green foxtail (Setaria viridis), Johnsongrass (Sorghum halepense), blackgrass (Aloepecurus myosuroides), common chickweed (Stellaria media), and common cocklebur (Xanthium strumarium L.).
# (§4) In the post-emergence test, seeds of the plant species named above were planted in flats containing the appropriate soil mixture where they were maintained to allow the seeds to germinate. When the plants in these flats reached the proper stage of growth, flats for the pre-emergence tests were planted in a like manner. The flats containing the post-emergence and pre-emergence test plant species were then sprayed with an appropriately concentrated water/acetone solution of test compound. Once treated the flats were maintained, along with untreated controls, for about fourteen days. All treated plants were then examined for phytotoxicity, which was expressed as percent control where 0 is no effect and 100 is complete control. Effective rates of application for the compounds of the present invention range from 0.001 to 3 kg/ha, more likely from […] to 1 Kg/ha.
# (§5) Herbicidal activity data at selected application rates are in Tables 4 and 5. The test compounds are identified by numbers correspond to those in Table 1.
# (§6) SOY is soybean, WHT is wheat, CRN is corn, ABUTH is velvetleaf, IPOSS is
# (§7) morningglory, STEME is chickweed, XANPE is cocklebur, ALOMY is blackgrass,
# (§8) Rate of application of test compound is 1 Kg/Ha. The definitions as shown under Table 4 apply to Table 5.
# [8] = tested on: blackgrass (Aloepecurus myosuroides); assay: pre-emergence herbicidal activity, blackgrass; details: Alopecurus myosuroides, 1 kg/Ha, about fourteen days, read-out: pre-emergence herbicidal activity (% control) ALOMY
# Summary of the method: as §1
# [9] = tested on: common chickweed (Stellaria media); assay: pre-emergence herbicidal activity, chickweed; details: 1 kg/Ha, about fourteen days, read-out: pre-emergence herbicidal activity (% control) STEME
# Summary of the method: as §1
# [10] = tested on: common chickweed (Stellaria media); assay: post-emergence herbicidal activity, chickweed; details: 1 Kg/Ha, about fourteen days, read-out: post-emergence herbicidal activity (% control) STEME
# Experimental: as §3, §4, §5, §6, §7, §8
# [11] = tested on: velvetleaf (Abutilon theophrasti); assay: pre-emergence herbicidal activity, velvetleaf; details: 1 kg/Ha, about fourteen days, read-out: pre-emergence herbicidal activity (% control) ABUTH
# Summary of the method: as §1
# [12] = tested on: green foxtail (Setaria viridis); assay: post-emergence herbicidal activity, green foxtail; details: 1 Kg/Ha, about fourteen days, read-out: post-emergence herbicidal activity (% control) SETVI
# Summary of the method: as §2
# [13] = tested on: soybean (Glycine max -- var. Winchester); assay: pre-emergence herbicidal activity, soybean; details: 1 kg/Ha, about fourteen days, read-out: pre-emergence herbicidal activity (% control) SOY
# Summary of the method: as §1
# [14] = tested on: wheat (Triticum aestivum var. Lew); assay: pre-emergence herbicidal activity, wheat; details: 1 kg/Ha, about fourteen days, read-out: pre-emergence herbicidal activity (% control) WHT
# Summary of the method: as §1
# [15] = tested on: morningglory (Ipomea lacunosa or Ipomea hederacea); assay: pre-emergence herbicidal activity, morningglory; details: Ipomoea, 1 kg/Ha, about fourteen days, read-out: pre-emergence herbicidal activity (% control) IPOSS
# Summary of the method: as §1
# [16] = tested on: soybean (Glycine max -- var. Winchester); assay: post-emergence herbicidal activity, soybean; details: 1 Kg/Ha, about fourteen days, read-out: post-emergence herbicidal activity (% control) SOY
# Summary of the method: as §2
# [17] = tested on: velvetleaf (Abutilon theophrasti); assay: post-emergence herbicidal activity, velvetleaf; details: 1 Kg/Ha, about fourteen days, read-out: post-emergence herbicidal activity (% control) ABUTH
# Summary of the method: as §2
# [18] = tested on: morningglory (Ipomea lacunosa or Ipomea hederacea); assay: post-emergence herbicidal activity, morningglory; details: Ipomoea, 1 Kg/Ha, about fourteen days, read-out: post-emergence herbicidal activity (% control) IPOSS
# Summary of the method: as §2
Structure (SMILES),activity at 1000 g/ha [1] [%],activity at 1000 g/ha [2] [%],activity at 1000 g/ha [3] [%],activity at 1000 g/ha [4] [%],activity at 1000 g/ha [5] [%],activity at 1000 g/ha [6] [%],activity at 1000 g/ha [7] [%],activity at 1000 g/ha [8] [%],activity at 1000 g/ha [9] [%],activity at 1000 g/ha [10] [%],activity at 1000 g/ha [11] [%],activity at 1000 g/ha [12] [%],activity at 1000 g/ha [13] [%],activity at 1000 g/ha [14] [%],activity at 1000 g/ha [15] [%],activity at 1000 g/ha [16] [%],activity at 1000 g/ha [17] [%],activity at 1000 g/ha [18] [%]
C#CCn1c(C(F)(F)F)cc(=O)n(-c2ccc(Cl)c3c2CN(C(C)C)C3=O)c1=O [Compound 75],95,85,70,50,95,100,100,95,100,100,100,45,100,100,100,60,100,50
Cn1c(C(F)(F)F)cc(=O)n(-c2ccc(Cl)c3c2CN(C2CCCC2)C3=O)c1=O [Compound 76],100,100,100,100,95,100,100,90,100,100,100,100,100,80,100,95,100,100
Cn1c(C(F)(F)F)cc(=O)n(-c2ccc(Cl)c3c2CN(C2CCCCC2)C3=O)c1=O [Compound 77],100,100,80,100,90,100,100,95,100,100,100,100,100,80,100,95,100,100
Cn1c(C(F)(F)F)cc(=O)n(-c2ccc(Cl)c3c2CN(CCF)C3=O)c1=O [Compound 78],100,100,100,100,100,100,100,100,100,100,100,100,100,100,100,100,100,100
C=CCn1c(C(F)(F)F)cc(=O)n(-c2ccc(Cl)c3c2CN(C(C)C)C3=O)c1=O [Compound 80],40,40,50,75,70,95,65,80,100,100,100,80,70,80,80,85,95,30
CC(C)N1Cc2c(-n3c(=O)cc(C(F)(F)F)n(C)c3=O)ccc(Br)c2C1=O [Compound 81],100,100,100,100,100,100,100,100,100,100,100,100,100,100,100,100,100,100
